This note sets out measurements from ChEMBL document CHEMBL1201862, “PubChem BioAssay data set” (2004).

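Five compound concentrations were applied to cells in 96-well plates for 48 hours; endpoints were derived by simple linear interpolation of the resulting dose-response curve. GI50 is the concentration that inhibits growth by half.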 The source made the active and inactive calls. Rule as the data show it: active = GI50 up to about 1.1 µM and inactive = higher.

What all share (assay): growth of human tumour cells (NCI), 48 h
Assay [1] deals with CAKI-1.
In assay [2] the test system is COLO 205.
Assay [3] deals with HCT-116.
Assay [4] relates to HCT-15.
For assay [5], the system named is HL-60.
Assay [6] relates to IGROV-1.
Assay [7] concerns K562.
Assay [8] deals with MDA-MB-231.
The subject of assay [9] is NCI-H226.
Assay [10] concerns NCI-H522.
Assay [11] concerns PC-3.
Assay [12] has as its system RPMI-8226.
In assay [13] the test system is SF-268.
Assay [14] deals with SK-OV-3.
Assay [15] deals with SNB-75.
In assay [16] the test system is T47D.
Assay [17] relates to TK-10.
In assay [18] the test system is UACC-62.

As to `COc1cc2c3c(c1)CCCN3CCC2`, the GI50 in assay [1] is > 10 µM (inactive); in assay [2] it was > 10 µM (inactive); in assay [3], > 10 µM (inactive); in assay [4] it was > 10 µM; in [5], > 10 µM (inactive); in [6], > 10 µM (inactive). Also, the GI50 in assay [7], in assay [8], in [9], in [10], in assay [11] and in assay [12] was > 10 µM (inactive) each time. For the same compound, the GI50 in [13], in [14], in [15], in assay [16], in assay [17] and in [18] was > 10 µM (inactive) throughout.

Take `C=C(Br)CNC(=O)Nc1ccc(Cl)c(Cl)c1`: the GI50 in assay [1] is 20.4 µM (inactive); in assay [2], 16.9 µM (inactive); in assay [3], 17.1 µM (inactive); in [4], 30.5 µM; in assay [5], 15.9 µM (inactive); in assay [6], 13.6 µM (inactive). Further, the GI50 in [7] was 23.8 µM (inactive); in assay [8], 15.2 µM (inactive); in assay [9] it was 25.4 µM (inactive); in [10], 18.6 µM (inactive); in [11] it was 11.2 µM (inactive); in assay [12], 17.3 µM (inactive). The GI50 was 27.3 µM (inactive) in [13]; 29 µM (inactive) in assay [14]; 21.3 µM (inactive) in [15]; 17.9 µM (inactive) in assay [16]; 25.8 µM (inactive) in assay [17]; 18.8 µM (inactive) in [18].

Consider `CC1(C)OC(=O)C(C)(C)OC1=O`, for which the GI50 in assay [1] was > 100 µM (inactive); in assay [2], > 100 µM (inactive); in assay [3] it was > 100 µM (inactive); in assay [4] it was > 100 µM; in assay [5], > 100 µM (inactive); in assay [6] it was > 100 µM (inactive). In addition, the GI50 in [7], in assay [8], in assay [9], in [10], in assay [11] and in assay [12] was > 100 µM (inactive) in each case. Further, the GI50 in [13], in assay [14], in [15], in [16], in assay [17] and in assay [18] was > 100 µM (inactive) each time.

As for `C=C1C(=O)OC2C1C(OC(=O)/C(C)=C/C)CC1(C)C(=O)CCC(=C)C21` (configuration not stated), the GI50 in assay [1] is 4.79 µM (inactive); in assay [2] it was 5.33 µM (inactive); in assay [3], 4.03 µM (inactive); in assay [4], 3.15 µM; in assay [5], 1.89 µM (inactive); in [6] it was 11.3 µM (inactive). Also, the GI50 was 3.13 µM (inactive) in [7]; 17.9 µM (inactive) in assay [8]; 20.7 µM (inactive) in assay [9]; 2.54 µM (inactive) in [10]; 11 µM (inactive) in assay [11]; 1.95 µM (inactive) in assay [12]. Further, the GI50 in assay [13] was 10.7 µM (inactive); in assay [14], 25.2 µM (inactive); in [15] it was 15.9 µM (inactive); in [16], 13.1 µM (inactive); in [17], 4.89 µM (inactive); in assay [18], 8.47 µM (inactive).
